A short description of data set [1]: Clearance in human liver microsomes. The conditions noted are these: 0.5 μM compound, 0.5 mg/mL microsomes, 1 mM NADPH. Type of data set: in vitro ADME. As to the method: Test compound concentration is 0.5 μM, microsome concentration is 0.5 mg/mL and NADPH concentration is 1 mM in the incubation. The described method is performed by the liquid handling system Tecan RSP and is based on a 96-well format.
Control incubations with test compound without NADPH and test compound without microsomes are conducted to investigate non-CYP mediated metabolism and stability in phosphate buffer at 37° C., respectively.
The human liver microsomal suspension in phosphate buffer is mixed with NADPH. The mixture is pre-heated (7 min) to 37° C. Test compound is added, and the mixture is incubated for 30 minutes. Incubations are run in duplicate. Samples are withdrawn at predetermined stop times and mixed with methanol containing internal standard (IS) to terminate all enzyme activity and precipitate proteins. A control without NADPH (to detect problems such as nonspecific protein binding, heat instability or non-CYP mediated metabolism) and a control without microsomes (for assessing compound stability in the absence of any active enzymes) are tested.
The percentage of organic solvent in the incubations is less than 1%. Careful inspections of reagents are performed prior to the start of any experiment to ensure all reagents are in solution.
The 96-well plates are centrifuged. Test compound depletion, using a compound specific LC/MS/MS method, is determined.
The logarithm of the peak area ratios of test compound to internal standard (IS) versus incubation time is plotted in a graph.
The rate constant (k) (min^−1) of test compound depletion is calculated from the linear part of the curve and the half-time (t1/2) in minutes can be calculated from the rate constant (Eq. 1). t1/2=(ln 2)/k (Eq. 1)
Intrinsic clearance (Clint) (mL/min/mg protein) is calculated from: Clint=k/c (Eq. 2) where c is the microsomal protein concentration in mg/mL.
Conversion to apparent clearance (Clapp) (mL/min/kg) is done by Eq. 3: Clapp=Clint×a×b/d (Eq. 3) where a, b and d are the scaling factors for normalizing Clint to human body weight.
The following human scaling factors are used:
a: 45 (microsomal protein/liver weight (mg/g))
b: 1500 (liver weight (g))
Apparent clearance below approximately 10 mL/min/kg human body weight (corresponding to extraction ratio of approx. 30%) is considered as low clearance (high metabolic stability). Apparent intrinsic clearance above approximately 60 mL/min/kg human body weight (corresponding to extraction ratio of approx. 75%) is considered as high clearance (low metabolic stability).

The next data set concerns the target T1, human CaSR (Homo sapiens, UniProt P41180).
T1 sequence (P41180 20-1078): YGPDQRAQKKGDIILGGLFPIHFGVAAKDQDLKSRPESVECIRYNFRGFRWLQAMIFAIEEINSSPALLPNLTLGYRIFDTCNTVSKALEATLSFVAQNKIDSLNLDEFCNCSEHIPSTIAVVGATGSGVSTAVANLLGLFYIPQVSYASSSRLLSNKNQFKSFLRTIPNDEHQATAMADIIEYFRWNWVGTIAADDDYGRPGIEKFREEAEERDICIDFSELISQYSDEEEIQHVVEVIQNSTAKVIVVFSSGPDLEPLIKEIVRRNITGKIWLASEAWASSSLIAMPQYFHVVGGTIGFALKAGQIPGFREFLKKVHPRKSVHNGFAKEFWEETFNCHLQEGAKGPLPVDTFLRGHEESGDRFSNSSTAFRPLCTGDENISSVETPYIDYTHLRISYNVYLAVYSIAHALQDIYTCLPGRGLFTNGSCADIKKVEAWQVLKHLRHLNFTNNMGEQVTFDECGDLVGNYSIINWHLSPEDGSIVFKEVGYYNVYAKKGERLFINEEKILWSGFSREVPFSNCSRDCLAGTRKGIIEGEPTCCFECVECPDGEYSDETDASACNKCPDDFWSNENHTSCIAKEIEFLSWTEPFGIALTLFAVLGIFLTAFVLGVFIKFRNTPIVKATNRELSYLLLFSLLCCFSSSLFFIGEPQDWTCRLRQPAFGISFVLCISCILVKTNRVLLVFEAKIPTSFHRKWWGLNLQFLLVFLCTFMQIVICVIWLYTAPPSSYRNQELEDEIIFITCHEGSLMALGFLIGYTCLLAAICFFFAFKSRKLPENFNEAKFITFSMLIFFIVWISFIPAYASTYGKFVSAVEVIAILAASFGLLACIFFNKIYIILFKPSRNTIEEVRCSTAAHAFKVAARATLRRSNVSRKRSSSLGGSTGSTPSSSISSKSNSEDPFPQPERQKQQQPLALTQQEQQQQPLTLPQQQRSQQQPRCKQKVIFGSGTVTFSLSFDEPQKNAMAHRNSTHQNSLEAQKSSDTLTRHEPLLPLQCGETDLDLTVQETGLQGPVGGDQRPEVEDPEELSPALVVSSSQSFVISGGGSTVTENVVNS
In words: Functional whole cell assay (modulation of human CaSR), IP1 accumulation in CHO-K1 cells. Type of data set: cell-based. To be noted: human CaSR stably expressed on CHO-K1 cells, 2 mM Ca2+, IP-One htrf. The text has this:
The assay investigates a compound's functional ability to act as a biological positive modulator on the human CaSR. Activation of the receptor expressed on CHO-K1 cells is detected through the G alpha q pathway, the activation of phospholipase C and the accumulation of intracellular inositol phosphate (IP) as described earlier [Sandrine Ferry, Bruno Chatel, Robert H. Dodd, Christine Lair, Danielle Gully, Jean-Pierre, Maffrand, and Martial Ruat. Effects of Divalent Cations and of a Calcimimetic on Adrenocorticotropic Hormone Release in Pituitary Tumor Cells. BIOCHEMICAL AND BIOPHYSICAL RESEARCH COMMUNICATIONS 238, 866-873 (1997)]. The human CaSR is stably expressed on a CHO-K1 cell clone, stimulated with a basal level of calcium and challenged with the tested compound. The level of IP1 is determined using the IP-One htrf kit (Cisbio, France). CHO-K1 cells not transfected with the CaSR fail to elicit an IP1 response upon calcium and/or compound stimulation.
The ORF coding for the human CaSR (genebank: NM_000388) was acquired from Invitrogen Corp, USA and subsequently cloned into the mammalian expression vector pCDA3.1.
CHO-K1 cells were transfected using Lipofectamine according to manufacturer's protocol (400.000 cells/well were seeded in a 6-well plate and transfected after 24 hours using 2 μg DNA and 5 μl lipofectamine). After another 24 hours the cells were detached, seeded and subjected to 1 mg/ml of G-418. Following 7 days growth single clones were picked, the CaSR expression evaluated using the 5C10 antibody against CaSR, the clones with the highest expression were selected and tested for functional response. The preferred clone was continuously cultured according to standard procedures described in ATCC (American Type Culture Collection) protocols for CHO-K1 with the addition of 500 μg/ml G-418.
On the assay day cells were harvested and resuspended to 13*10^6 cells/ml in stimulation buffer (containing: Hepes 10 mM, MgCl2 0.5 mM, KCl 4.2 mM, NaCl 146 mM, glucose 5.5 mM, LiCl 50 mM at pH 7.4). Five μl cell solution were pipetted into a well (white 384-well plate, Perkin Elmer Optiplate) followed by 5 μl compound diluted in a Ca^2+-containing (to the final concentration of 2 mM) buffer. After compound stimulation for 1 hour at 37° C. 10 ul of IP-One assay reagents were added and incubated for another 1 hour at room temperature. Finally the plate was read using a Perkin Elmer EnVision, according to protocol supplied by the IP-One assay kit manufacturer. The FRET ratio was calculated by dividing the 665 nm emission signal with that of the 615 nm.

The nature of data set [2]: Pharmacokinetic profile following intravenous administration in rats. Type of data set: in vivo. To be noted: serum, rat, 0.5 mg/kg. The method, then:
A rat is dosed intravenously with a solution of test compound (0.5 mg/kg) in DMSO/EtOH/H2O/propylene glycol [0.2:0.8:5:4] and blood samples are taken from the sublingual venous plexus after 2 min, 10 min, 30 min, 1 h, 2 h, 4 h and 6 h.
Blood samples are taken in BD Vacutainer SST serum separation tubes, serum is isolated by centrifugation, transferred to micronics tubes and analyzed. Samples are kept at −18° C. pending analysis.
Mass spectrometer (API5000 series) parameters are optimised to analyse for the specific compounds and test injections are performed to confirm the validity of the established generic chromatography method. The generic method is based on fast gradient (2.5 min) analysis on C18 column with mobile phases consisting methanol, ammonium acetate, formic acid and water.
Standards are prepared in rat serum to cover the analytical range 0.1 to 300 ng/ml. Standards, blank serum and study samples are applied to 96 deepwell plate and proteins are precipitated by addition of acetonitrile containing internal standard. Samples are analysed on LC-MS/MS usually over night.
As standard, the 2 and 10 min samples are diluted 10 times with rat serum prior to analysis. Other samples may need similar dilution to keep quantification below 300 ng/ml.
Quantification is performed based on the ratio between analyte and internal standard. The curve should preferably fit a linear curve using a 1/x weighting factor. At least a factor of two is needed to distinguish between blank serum and lowest standard. If this is not the case the quantification of the specific experiment may be raised.
Calculation of T½ requires at least three datapoints describing a true elimination phase. If such three points are not available AUC (0-inf) can not be estimated. In these cases […](0-6 h) is calculated instead.
Total clearance of drug from serum (Cl_iv) is calculated from: Cl—iv=Dose/AUC
Terminal volume of distribution (Vd) is defined as the volume in which the amount of drug would need to be uniformly distributed to produce the observed serum concentration and is calculated from: Vd=T½×Cl—iv/(ln 2)

Take `COc1cc([C@@H](C)N[C@H]2CC[C@@H](c3ccc(S(=O)(=O)NCCO)cc3)C2)ccc1F` [Compound 1187, 4-[(1R,3S)-3-[[(1R)-1-(4-fluoro-3-methoxy-phenyl)ethyl]amino]-cyclopentyl]-N-(2-hydroxyethyl)benzenesulfonamide]: the “Clearance (Clapp) in human liver microsomes” value (from here on “Clearance (Clapp)”) in data set [1] was “A (A: <20 mL/min/kg)”. Also, the EC50 at human CaSR is less than 0.5 µM. The Vd in data set [2] is greater than 50 L/kg.

Regarding `COc1cc([C@@H](C)NC2CC[C@H](c3ccc(S(C)(=O)=O)cc3)C2)ccc1F` (stereo partly drawn) [Compound 1014, (1R)—(N)-[(1R/S,3S)-3-(4-methanesulfonylphenyl)cyclopentyl]-1-(4-fluoro-3-methoxyphenyl)ethanamine], the “Clearance (Clapp)” value in data set [1] is on record as “A (A: <20 mL/min/kg)”. The molecule also had an EC50 at human CaSR of less than 0.5 µM.

As to `COc1cc([C@@H](C)NC2CC[C@H](c3ccc(C(=O)NC4CCNCC4)cc3)C2)ccc1F` (mixture of isomers) [Compound 1157, (1R)—(N)-[(3S)-3-[4-[piperidin-4-ylaminocarbonyl]phenyl]-cyclopentyl]-1-(4-fluoro-3-methoxyphenyl)ethanamine], in data set [1], the “Clearance (Clapp)” value was “A (A: <20 mL/min/kg)”. Also, at human CaSR, the EC50 was less than 0.5 µM. In data set [2], this molecule registered a Vd of 10 to 50 L/kg.

On to `COc1cc([C@@H](C)N[C@H]2CC[C@@H](c3ccc(C(=O)NCCNS(C)(=O)=O)cc3)C2)ccc1F.Cl` [Compound 1178, 4-{(1R,3S)-3-[(1R)-1-(4-Fluoro-3-methoxy-phenyl)-ethylamino]-cyclopentyl}-N-(2-methanesulfonylamino-ethyl)-benzamide hydrochloride], for which the “Clearance (Clapp)” value in data set [1] was “A (A: <20 mL/min/kg)”. Further, the EC50 at human CaSR was less than 0.5 µM. In data set [2], this molecule yielded a Vd greater than 50 L/kg.

On to `COc1cc([C@@H](C)N[C@H]2CC[C@@H](c3ccc(C(=O)NCCO)cc3)C2)ccc1F` [Compound 1176, 4-{(1R,3S)-3-[(1R)-1-(4-Fluoro-3-methoxy-phenyl)-ethylamino]-cyclopentyl}-N-(2-hydroxy-ethyl)-benzamide], for which the “Clearance (Clapp)” value in data set [1] is on record as “A (A: <20 mL/min/kg)”. In addition, the EC50 on human CaSR is less than 0.5 µM.

Take `COc1cc([C@@H](C)N[C@H]2CC[C@@H](c3ccc(C(=O)N4CCNC(=O)C4)cc3)C2)ccc1F` [Compound 1179, 4-(4-{(1R,3S)-3-[(1R)-1-(4-Fluoro-3-methoxy-phenyl)-ethylamino]-cyclopentyl}-benzoyl)-piperazin-2-one]: the “Clearance (Clapp)” value in data set [1] was “A (A: <20 mL/min/kg)”. On human CaSR, this molecule had an EC50 of less than 0.5 µM. This molecule displayed a Vd in data set [2] of 10 to 50 L/kg.

On to `COc1cc([C@@H](C)N[C@H]2CC[C@@H](c3ccc(-c4nnn[nH]4)cc3)C2)ccc1F` [Compound 1182, (1S,3R)—N-[(1R)-1-(4-fluoro-3-methoxy-phenyl)ethyl]-3-[4-(1H-tetrazol-5-yl)phenyl]cyclopentanamine], for which the “Clearance (Clapp)” value in data set [1] is “A (A: <20 mL/min/kg)”. In addition, the EC50 on human CaSR was less than 0.5 µM. The molecule also gave a Vd in data set [2] of less than 10 L/kg.

With `COc1cc([C@@H](C)NC2CCC(c3ccc(CNS(C)(=O)=O)cc3)C2)ccc1F` (mixture of isomers) [Compound 1181, N-[[4-[(1R/S,3R/S)-3-[[(1R)-1-(4-fluoro-3-methoxy-phenyl)ethyl]amino]cyclopentyl]-phenyl]methyl]methanesulfonamide], the “Clearance (Clapp)” value in data set [1] is recorded as “A (A: <20 mL/min/kg)”. The molecule further gave an EC50 on human CaSR of less than 0.5 µM.

As usually defined, the EC50 is the concentration giving half of the maximal effect. Read a high EC50 as lower potency in that assay. As a reminder, the Vd is the apparent volume that relates the amount in the body to the concentration in plasma or blood. Lower therefore signals confinement near the circulation.

Values taken from patent US8765676B2, “Calcium sensing receptor modulating compounds and pharmaceutical use thereof” (Leo Pharma A/S, priority 2009, dated 2014).
